The values below come from article PMC12025037, “Molecular Basis of Dipeptide Recognition in Drosophila melanogaster Angiotensin I-Converting Enzyme Homologue, AnCE” (Biomolecules, 2025).

For one assay, the target named is cACE. On the set-up: method as in PMID 25053098. As to conditions: cited from earlier work.
A further assay has as its target T1, AnCE (Drosophila melanogaster, UniProt Q10714).
T1 construct: made in house; host or cells: Pichia pastoris GS115 (vector pPiC9), purified from the culture supernatant
T1 sequence (Q10714 18-615): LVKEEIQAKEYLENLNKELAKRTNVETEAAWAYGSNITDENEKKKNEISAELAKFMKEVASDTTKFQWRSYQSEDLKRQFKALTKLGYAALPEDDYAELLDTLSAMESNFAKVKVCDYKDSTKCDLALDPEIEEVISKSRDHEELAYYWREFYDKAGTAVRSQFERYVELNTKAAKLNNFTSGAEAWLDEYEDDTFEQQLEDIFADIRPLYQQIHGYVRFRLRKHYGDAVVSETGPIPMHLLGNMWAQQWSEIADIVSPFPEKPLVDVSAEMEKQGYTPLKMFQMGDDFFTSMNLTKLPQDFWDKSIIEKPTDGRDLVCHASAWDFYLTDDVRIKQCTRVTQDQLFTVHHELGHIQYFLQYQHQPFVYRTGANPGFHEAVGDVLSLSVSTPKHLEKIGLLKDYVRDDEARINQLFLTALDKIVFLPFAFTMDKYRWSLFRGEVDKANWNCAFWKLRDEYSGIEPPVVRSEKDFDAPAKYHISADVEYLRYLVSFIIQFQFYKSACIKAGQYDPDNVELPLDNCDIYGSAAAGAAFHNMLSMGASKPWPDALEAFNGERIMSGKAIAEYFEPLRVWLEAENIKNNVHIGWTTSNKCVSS
The experiment in a line: Inhibition of AnCE activity, fluorogenic Abz-FRK(Dnp)-P substrate assay. In kind it is biochemical. As to conditions: for pIC50: AnCE 25 ng, substrate Abz-FRK(Dnp)-P, pH 7.5, 20 °C, 10 min pre-incubation with inhibitor; for pKi: from IC50 by Cheng–Prusoff equation, substrate Km 14.24 µM. Here is the method:
Enzyme assays were performed using the internally quenched fluorogenic peptide Abz-FRK(Dnp)-P (Enzo Life Sciences Ltd., Exeter, UK) as a substrate for 25 ng of AnCE in 200 µL of 100 mM HEPES buffer pH 7.5 with 50 mM NaCl and 10 µM ZnCl2. The reaction was started by adding 2 µL of 5 mM Abz-FRK(Dnp)-P in dimethyl sulfoxide to the buffer in wells of a 96-well black plastic plate (Corning Life Sciences, High Wycombe, UK), and the release of fluorescence on hydrolysis of the substrate was monitored continuously at 20 °C using a FLUOstar Omega (BMG Labtech GmbH, Offenburg, Germany) with λex at 340 nm and λem set at 430 nm. For studying the effect of dipeptide inhibitors, the enzyme in the assay buffer was pre-incubated with inhibitor for 10 min prior to the addition of the substrate. IC50 values were determined using the non-linear regression curve-fitting software [log(inhibitor) vs. response] of GraphPad Prism 7.01 (GraphPad Software, San Diego, CA, USA). The coefficient of determination (R^2) values for the regression model ranged from 0.9852 to 0.9629. Ki values were obtained using the Cheng–Prusoff equation and a substrate Km of 14.24 µM, obtained using non-linear regression curve-fitting software (Michaelis–Menten) of GraphPad Prism 7.01. The R^2 for the Km determination was 0.9787 [31].

For another assay, the target named is nACE. The arrangement: method as in PMID 25053098. Conditions: cited from earlier work.
In another assay the test system is ACE. On the set-up: method as in doi:10.1007/s00217-013-2014-x. As to conditions: inhibition of ACE activity; cited from earlier work.

pIC50, pKi: −log10 of the molar value. Residues, ends and D or L forms follow the SMILES beside them.

Consider `CC(C)[C@H](N)C(=O)N[C@@H](Cc1c[nH]c2ccccc12)C(=O)O` [VW] (H-Val-Trp-OH), for which the values for the pKi on cACE, on AnCE (AnCE) and on nACE were 5.68, 3.77 and 3.82, respectively. The molecule further had a pIC50 at AnCE of 3.11.
Take `NC(N)=NCCC[C@H](N)C(=O)N[C@@H](Cc1c[nH]c2ccccc12)C(=O)O` [RW] (H-Arg-Trp-OH): on AnCE, the pIC50 was 3.06. This molecule also gave an inhibition constant Ki on AnCE (AnCE, values restated in µM in the text) of 200 µM.
Regarding `CC[C@H](C)[C@H](N)C(=O)N[C@@H](Cc1c[nH]c2ccccc12)C(=O)O` [IW], the pKi was 5.80 at cACE, 4.10 at AnCE (AnCE) and 4.22 on nACE. For the same molecule, the pIC50 against AnCE is 3.47; in the assay on ACE, 6.15.
Take `N=C(N)NCCC[C@H](NC(=O)[C@@H](N)Cc1c[nH]c2ccccc12)C(=O)O` [WR] (H-Trp-Arg-OH): the “inhibition of cACE (in words)” value with cACE is on record as “poor inhibitors”. This molecule also had a pIC50 at AnCE of 2.42. Also, the pKi at AnCE (AnCE) was 3.08.
In the case of `N[C@@H](Cc1ccc(O)cc1)C(=O)N[C@@H](Cc1c[nH]c2ccccc12)C(=O)O` [YW] (H-Tyr-Trp-OH), the “inhibition of cACE (in words)” value with cACE was “poor inhibitors”. Also, the pIC50 on AnCE is 2.47. This molecule also had a pKi on AnCE (AnCE) of 3.12.
